# Measured values: patent US20170115276A1, “SPECIFIC MODULATORS OF CONNEXIN HEMICHANNELS” (PONTIFICIA UNIVERSIDAD CATÓLICA DE CHILE, priority 2014, published 2017)
# Assays:
# [1] = tested on: hemichannels formed by connexins (26 or 43); assay: In vitro test of blocking the opening/activation of hemichannels; permeability tracer (ethidium) uptake in transfected HeLa cells; assay type: cell-based, Mouse; settings: for % Inhibition Hemichannel activity (Cx26 o 43): inhibition of the permeability tracer at a concentration of 5 μM, HeLa cells transfected with connexins 26 or 43
# Method: The compounds are tested in experiments based on cells that are deficient in the expression of hemichannels and transfected with different connexins in order to evaluate and/or confirm their capacity of modulating the transport through the cellular membrane. The transport of permeability tracing molecules is evaluated and compared with the inhibitors of channels formed by connexins known, such as beta glycyrrhetinic acid (BGA) and carbenoxolone (CBX).
# (§1) The cells are incubated in an extracellular medium without divalent cations in order to increase the opening probability of hemichannels formed by connexins. In addition, as negative control parental cells not expressing hemichannels and cells transfected with panexine 1 and mechanically stimulated to induce the opening of the hemichannels formed by panexine 1.
# In vitro test of blocking the opening/activation of hemichannels formed by connexins (26 or 43).
# The capacity of the different tracing molecules was tested in vitro to evaluate the capacity of the compounds of reducing the transport of these molecules using the HeLa cells transfected with connexins 26 or 43.
# (§2) […] HeLa cells transfected with connexins 26 or 43 are used. In order to evaluate the activity of each compound over the connexin hemichannels, 10^3 HeLa cells transfected with connexins are shown by well in multi-well ([…]) plates 24 h before each experiment. Then, the cells are washed in a Locke solution that contains normal levels of divalent cations (Ca^2+ and Mg^2+) or a cation-free divalent Locke solution that contains 5 μm of ethidium bromide. Parallel to this, the cells are treated with different concentrations of each candidate compound and incubated for 5 min.
# (§3) As indicated by the scheme of FIG. 2, the HeLa cells transfected with connexin 43 (Cx43) are shown in multi-well (96) plates and after 24 h the ethidium uptake is evaluated in the presence of cation free solution (DCFS) in the presence or absence of the compound in question. The ethidium uptake is evaluated as the fluorescence emitted measured with a fluorometer. If the value of fluorescence in the presence of the inhibitor is equal or close to that measured in cells bathed with a solution that contains divalent cations, the compound corresponds to an inhibitor of hemichannels formed by connexins. On the contrary, if the fluorescence value emitted by cells exposed to a possible inhibitor in DCFS is equal to that of cells bathed only with DCFS (without the compound in question), the compound is not an inhibitor of hemichannels formed by connexins. The same test is performed with different concentrations of each compound in order to determine the minimum effective concentration (EC50).
# [2] = molecular target: T1, gap junction channels formed by connexin 43 (Mus musculus, UniProt P23242); assay: Cellular coupling assessed with the transfer of ethidium in HeLa-Cx43 cells; assay type: cell-based; settings: for effect on gap junction channels (in words): connexin isoform and concentration not stated
# T1 construct: expressed in transfected cells; host or cells: HeLa
# T1 sequence (P23242 whole entry, canonical isoform): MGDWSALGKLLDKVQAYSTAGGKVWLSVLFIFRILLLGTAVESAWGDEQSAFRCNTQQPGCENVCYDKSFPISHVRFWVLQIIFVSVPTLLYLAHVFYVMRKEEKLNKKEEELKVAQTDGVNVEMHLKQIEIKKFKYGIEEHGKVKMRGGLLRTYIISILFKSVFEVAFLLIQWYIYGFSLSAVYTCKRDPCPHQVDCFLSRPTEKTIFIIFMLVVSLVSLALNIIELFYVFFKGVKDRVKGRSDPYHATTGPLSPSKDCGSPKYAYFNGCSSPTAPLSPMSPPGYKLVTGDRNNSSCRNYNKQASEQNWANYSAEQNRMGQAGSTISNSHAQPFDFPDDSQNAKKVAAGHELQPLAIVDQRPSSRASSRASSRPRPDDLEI
# Method: FIG. 6. Cellular coupling assessed with the transfer of ethidium. A. Effect of the different inhibitors in HeLa-Cx43 cells (transfected with connexin 43). B. Cellular coupling index.
# (§4) The molecules that inhibit the hemichannels formed by connexins are evaluated by their action on the hemichannels formed by panexine 1. The molecules inhibiting the hemichannels formed by connexins in the nanomolar range are studied as possible inhibitors of intercellular binding channels using the coupling technique to dyes and through electrophysiology using double fixing of voltage.
# [3] = molecular target: T2, hemichannels formed by panexine 1 (Panx1) (Homo sapiens, UniProt Q96RD7); assay: Functional status of panexine 1 hemichannels activated by mechanic stress; assay type: cell-based; settings: for effect on hemichannels formed by panexines (in words): concentration not given
# T2 construct: expressed in transfected cells
# T2 sequence (Q96RD7 whole entry, species assumed): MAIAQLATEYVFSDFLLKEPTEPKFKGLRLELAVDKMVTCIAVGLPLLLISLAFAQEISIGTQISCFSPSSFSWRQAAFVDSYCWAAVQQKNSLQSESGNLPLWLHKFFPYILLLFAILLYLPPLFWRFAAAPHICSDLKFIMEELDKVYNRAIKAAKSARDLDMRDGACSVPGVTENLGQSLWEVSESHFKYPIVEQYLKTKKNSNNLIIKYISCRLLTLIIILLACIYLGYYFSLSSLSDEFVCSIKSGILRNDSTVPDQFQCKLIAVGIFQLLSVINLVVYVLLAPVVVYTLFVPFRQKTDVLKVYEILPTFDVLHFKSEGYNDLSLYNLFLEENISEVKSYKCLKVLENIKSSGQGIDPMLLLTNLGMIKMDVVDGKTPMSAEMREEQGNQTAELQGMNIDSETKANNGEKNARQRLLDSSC
# Method: FIG. 7. Functional status of the hemichannels formed by panexine1 (Panx1) driven by mechanic stress.
# as §1
# Therefore, the compound is an inhibitor of hemichannels formed by highly specific conexins.
# [4] = molecular target: T3, hemichannels formed by connexin 43 (Mus musculus, UniProt P23242); assay: Ethidium uptake in HeLa Cx43-EGFP cells induced by divalent cation free solution (DCFS); assay type: cell-based; settings: for ethidium uptake speed or rate by minute (dye uptake) induced by DCFS: 10 nM
# T3 construct: expressed in transfected cells; host or cells: HeLa
# T3 sequence (P23242 whole entry): as the sequence (P23242 whole entry, canonical isoform) above
# Method: FIG. 3. Ethidium uptake in HeLa Cx43-EGFP. Effect of DCFS. A: Cells in culture. B: Ethidium uptake chart in HeLa Cx43-EGFP. C: extracelular DCSF induces the inlet of ethidium in Cx43; the effect of DCSF is shown, which was blocked by the inhibiting molecule (MX) (10 nM), (P<0.05, n=4).
# as §2
# as §3, with “The same test is performed with different concentrations of each compound in order to determine the minimum effective concentration (EC50).” left out
# In FIG. 3, the upper left panel (A) corresponds to a phase microphotograph, where the HeLa cells can be noted that express connexin 43 conjugated with green fluorescent protein (EGFP) present in the microscopic field. […] Clearly, the inhibiting molecule inhibits the activity of hemichannels evaluated as dye uptake.
# [5] = molecular target: T4, gap junction channels formed by connexin 26 (Mus musculus, UniProt Q00977); assay: Incidence of cellular coupling evaluated with microinjections of Lucifer yellow; assay type: cell-based; settings: 1 nM; Lucifer yellow microinjection
# T4 construct: expressed in transfected cells; host or cells: HeLa
# Method: FIG. 5. Incidence percentage of coupling according to the time.
# as §4
# FIG. 5 depicts that the cells transfected with connexin 26 are very well coupled to gap junction channels. The incidence of the cellular coupling evaluated with microinjections of Lucifer yellow is close to 100% (black boxes).
# [6] = molecular target: T3, hemichannels formed by connexin 43; assay: Unit currents of hemichannels in HeLa cells bathed in saline solution without Ca2+; assay type: cell-based; settings: 10 nM
# Excerpt: FIG. 4. Unit streams of the hemichannels formed by connexin 43 in HeLa cells bathed in saline solution without calcium ion (or Ca^2+) and in the presence of EGTA.
# Should the molecules not inhibit the intercellular channels formed by connexins in the millimolar range and not affect the hemichannels formed by panexine 1, its inhibiting effect of currents of hemichannels formed by connexins using the voltage fixing methodology in the modality of full cell.
# The unit currents of the hemichannels formed by connexin 43 are very frequent in the HeLa cells bathed with a saline solution without the calcium ion (or Ca^2+) (see FIG. 4, the two upper tracings).
# [7] = in vitro hemichannel blocking, connexins 26 or 43
smiles,measurement,setting,value
"O=C(O)C(Oc1ccc(-c2ccccc2)cc1)Oc1ccc(-c2ccccc2)cc1 [Example 3 (C), Acetic 2,2-bis([1,1′-bifenil]-4-iloxi) acid]",% Inhibition Hemichannel activity (Cx26 o 43),[1],0%
"O=C(O[C@@H](C(=O)c1ccc(Cl)cc1)c1ccccc1)c1ccc2ccccc2n1 [Example 1 (A), (R)-2-(4-chlorofenil)-2-oxo-1-fenilethylquinoline-2-carboxylate]",effect on gap junction channels (in words),[2],do not affect
same,inhibition of hemichannels formed by connexins (in words),[1],potent inhibitors
same,% Inhibition Hemichannel activity (Cx26 o 43),[1],0%
same,effect on hemichannels formed by panexines (in words),[3],do not affect
"O=C(O[C@@H](C(=O)c1ccc(Cl)cc1)c1ccccc1)c1ccc2ccccc2n1 [compound 4, (R)-2-(4-chlorofenil)-2-oxo-1-fenilethlyquinoline-2-caroxilate]",cellular coupling mediated with gap junction channels formed by connexin 43,"[2]; 1 nM, ethidium transfer, HeLa-Cx43",does not inhibit
same,ethidium uptake speed or rate by minute (dye uptake) induced by DCFS,[4],completely inhibited
same,ethidium uptake speed or rate by minute (dye uptake) induced by DCFS,[4]; listed as MX,blocked
same,reversal of the inhibition with the washing of DCFS,[4]; after 10 nM,partially reversed
same,functional status of Panx1 hemichannels activated by mechanic stress,[3]; 100 nM,not inhibited
same,"coupling incidence, gap junction channels formed by connexin 26",[5],does not significantly reduce
same,activity (unit currents) of the hemichannels formed by connexin 43,[6],drastically inhibited
"CC(=O)O[C@H]1CC[C@@]2(C)[C@@H](CC[C@@H]3[C@@H]2CC[C@]2(C)[C@@H](OC(=O)C4CCCCC4)CC[C@@H]32)C1 [Example 5 (E), (3S,5S,8R,9S,10S,13S,14S,17S)-3-acetoxi-10,13-dimethylhexadecahydro-1H-ciclopenta[a]fenantren-17-il ciclohexanocarboxilate]",efficacy,[1]; [7],100%
same,% Inhibition Hemichannel activity (Cx26 o 43),[1],100%
"C#C[C@]1(O)CC[C@H]2[C@@H]3CC=C4C[C@@H](OC(=O)CCC5CCCCC5)CC[C@]4(C)[C@H]3CC[C@@]21C [Example 6 (F), (3S,8R,9S,10R,13S,14S,17R)-17-ethynil-17-hydroxi-10,13-dimethyl-2,3,4,7,8,9,10,11,12,13,14,15,16,17-tetradecahydro-1H-ciclopenta[a]fenantren-3-yl 3-ciclohexilpropanoate]",% Inhibition Hemichannel activity (Cx26 o 43),[1],0%
"C[C@]12C[C@@H](F)C(=O)C[C@@H]1CC[C@@H]1[C@@H]2CC[C@]2(C)[C@@H](OC(=O)c3ccccc3)CC[C@@H]12 [Example 4 (D), (2R,5S,8R,9S,10S,13S,14S,17S)-2-fluoro-10,13-dimethyl-3-oxohexadecahydro-1H-ciclopenta[a]fenantren-17-il benzoate]",effect on gap junction channels (in words),[2],do not affect
same,inhibition of hemichannels formed by connexins (in words),[1],potent inhibitors
same,IC50,[1]; [7],20 nM
same,efficacy,[1]; [7],100%
same,% Inhibition Hemichannel activity (Cx26 o 43),[1],100%
same,effect on hemichannels formed by panexines (in words),[3],do not affect
"Clc1ccc(N2CCN(CCCN3CCN(c4ccc(Cl)cc4)CC3)CC2)cc1 [Example 2 (B), 1,3-bis(4-(4-chlorofenil)piperazin-1-il)propane]",% Inhibition Hemichannel activity (Cx26 o 43),[1],20%
"Cc1cc(N2CCOCC2)nc2ccc(Cc3ccc4nc(N5CCOCC5)cc(C)c4c3)cc12 [Example 7 (G), bis(4-methyl-2-morfolinquinoline-6-yl)methane]",% Inhibition Hemichannel activity (Cx26 o 43),[1],0%
"CC1(C)[C@@H](OC(=O)CCC(=O)O)CC[C@]2(C)[C@H]3C(=O)C=C4[C@@H]5C[C@@](C)(C(=O)O)CC[C@]5(C)CC[C@@]4(C)[C@]3(C)CC[C@@H]12 [carbenoxolone, reference compound]",functional status of Panx1 hemichannels activated by mechanic stress,[3]; 5 μm,totally blocked
